From paper PMC10076671, “Spider venom-derived peptide JZTX-14 prevents migration and invasion of breast cancer cells via inhibition of sodium channels” (Frontiers in Pharmacology, 2023)
Where a SMILES comes first, the peptide text is derived from it. Bridges are numbered along the chain shown (N, C = ends).

Legend:
[1] = test system: human breast cancer cells; details: ref Wannous et al., 2015; cited from earlier work
From the text: (§1) Voltage-gated sodium channels (Navs; VGSCs) are membrane proteins with nine isoforms responsible for the rapid upstroke of action potentials in excitable cells ([de Lera Ruiz and Kraus, 2015]). VGSCs are present in excitable and non-excitable cells, including microglia, astrocytes, immune cells, fibroblasts, and cancer cells, and play various biological roles, such as tumour cell migration and immune cell phagocytosis ([Black and Waxman, 2013]; [Roger et al., 2015]). Nav1.5, encoded by SCN5A, is an essential receptor in breast cancer growth and migration ([Rajaratinam et al., 2022]).

MDA-MB-231 cells [2] = details: strongly metastatic MDA-MB-231 cells; ref Yang et al., 2012; cited from earlier work
From the text: as §1

MDA-MB-231 cells [3] = details: ref Yang et al., 2012; cited from earlier work
From the text: Voltage-gated sodium channels (Navs; VGSCs) are membrane proteins with nine isoforms responsible for the rapid upstroke of action potentials in excitable cells ([de Lera Ruiz and Kraus, 2015]). VGSCs are present in excitable and non-excitable cells, including microglia, astrocytes, immune cells, fibroblasts, and cancer cells, and play various biological roles, such as tumour cell migration and immune cell phagocytosis ([Black and Waxman, 2013]; [Roger et al., 2015]). Nav1.5, encoded by SCN5A, is an essential receptor in breast cancer growth and migration ([Rajaratinam et al., 2022]). […] Nav1.5, a pore-forming alpha subunit of VGSC encoded by SCN5A, is not expressed in normal breast tissue or cells but is highly expressed in the breast cancer cell line MDA-MB-231 ([Dutta et al., 2018]). Elevated Nav1.5 expression promotes cell invasion and breakdown of extracellular matrix proteins, maintains ac ... || A peptide with anticancer activity was isolated and purified from animal venom to construct a new anticancer drug library. Compared to small-molecule drugs, peptide drugs have the advantages of high selectivity and affinity for molecular targets, and it is not easy to make tumours resistant to drugs ([Wu et al., 2014]). To date, many anticancer peptides have been screened from animal venom. […] Melittin, ...

breast cancer cell = details: ref Driffort et al., 2014; cited from earlier work
From the text: as §1

Nav1.5 = assay type: cell-based; details: Discussion: HEK293 cells heterologously expressing Nav1.5, 0.1 and 1 μM
Description: Sodium currents in experimental cells were recorded at room temperature (22°C–25°C) using an EPC-10 patch-clamp amplifier (HEKA, Germany) in a whole-cell patch-clamp configuration. Recording pipettes were made from borosilicate glass capillaries (VWR, United States) using a PC-10 puller (Narishige, Japan). The inner solution (mM): KCl 130, NaCl 15, CaCl2 0.37, MgCl2 1 EGTA 1, HEPES 10, pH 7.2, resistance was measured as 1.8 MO. The outer solution was composed of (mM): NaCl 140, KCl 3, MgCl2 1, CaCl2 1, HEPES 10, pH 7.2. To minimize voltage errors, the series resistance compensation was set to 80%. The P/4 protocol was used to subtract the linear capacitance and leakage current. Experimental data were acquired and analyzed using the pulse fit 8.0 program (HEKA, Germany). The needed concentrations of toxin dissolved in external solution were applied to the cell surface by microinjector.
To determine the biological activity of synthetic and natural JZTX-14 on Nav1.5, we observed their effects on HEK293T cells heterologously expressing Nav1.5 using a whole-cell voltage-clamp configuration. The current traces were induced by a 50 ms depolarisation potential of −30 mV at a holding potential of −100 mV. Currents were recorded by adding 0.1 μM and 0.5 μM of JZTX-14 to the solution.

breast cancer cells = details: inhibiting the PI3K/Akt/mTOR signalling pathway, ref Lim et al., 2019; cited from earlier work
From the text: A peptide with anticancer activity was isolated and purified from animal venom to construct a new anticancer drug library. Compared to small-molecule drugs, peptide drugs have the advantages of high selectivity and affinity for molecular targets, and it is not easy to make tumours resistant to drugs ([Wu et al., 2014]). To date, many anticancer peptides have been screened from animal venom. […] Melittin, ...

## CC/C=C\C/C=C\C/C=C\C/C=C\C/C=C\C/C=C\CCC(=O)O [DHA]
[1]
  Invasiveness of Nav1.5-dependent cancer cells: reducing the invasiveness of Nav1.5-dependent cancer cells
  Nav1.5 current and NHE-1 activity: inhibits Nav1.5 current and NHE-1 activity

## O=C1NC(=O)C(c2ccccc2)(c2ccccc2)N1 [Phenytoin]
MDA-MB-231 cells [2]
  Transient and persistent Na+ current: inhibited the transient and persistent Na^+ current
MDA-MB-231 cells [3]
  Migration and invasion: significantly inhibiting the migration and invasion

## COc1ccccc1OCC(O)CN1CCN(CC(=O)Nc2c(C)cccc2C)CC1 (stereo not shown) [Ranolazine]
Breast cancer cell
  Nav1.5-mediated breast cancer cell invasiveness and lung colonisation: inhibits Nav1.5-mediated breast cancer cell invasiveness and lung colonisation

## CC[C@H](C)[C@H](NC(=O)[C@@H]1CSSC[C@@H]2NC(=O)[C@@H]3CCCN3C(=O)[C@@H]3CCCN3C(=O)[C@H](CCC(N)=O)NC(=O)CNC(=O)[C@@H]3CCCN3C(=O)[C@H](Cc3c[nH]cn3)NC(=O)[C@@H]3CSSC[C@H](NC(=O)[C@H](C)NC(=O)[C@H](CC(C)C)NC(=O)CNC(=O)[C@H](CO)NC(=O)[C@H](CSSC[C@H](NC(=O)CN)C(=O)N[C@@H](CCC(N)=O)C(=O)N[C@@H](CCCCN)C(=O)N[C@@H](Cc4ccccc4)C(=O)N[C@@H](Cc4ccccc4)C(=O)N[C@@H](Cc4c[nH]c5ccccc45)C(=O)N[C@@H]([C@@H](C)O)C(=O)N3)NC2=O)C(=O)N[C@@H]([C@@H](C)O)C(=O)N[C@@H](Cc2c[nH]c3ccccc23)C(=O)N2CCC[C@H]2C(=O)N[C@@H]([C@@H](C)O)C(=O)N[C@@H](CCC(=O)O)C(=O)N[C@@H]([C@@H](C)CC)C(=O)N1)C(=O)N[C@@H](CC(C)C)C(N)=O [natural JZTX-14] (H-GCQKFFWTCHPGQPPCCSGLACTWPTEICIL-NH2; disulfide 2-17, 9-22, 16-29)
Nav1.5
  Inhibition of Nav1.5 channels (in words): significantly inhibited Nav1.5 channels in a concentration-dependent manner

## Melittin: the main peptide component of Apis mellifera venom
Breast cancer cells
  EGF-induced cell movement and invasion: inhibits EGF-induced cell movement and invasion
